Experiments:
Format in all cases: in vivo
barnyard grass [1] = experiment: Herbicidal activity test against upland field weeds (soil treatment test); set-up: key to Soil treatment herbicidal activity, barnyard grass: 0 (no control); 100 (complete control); details: scale 0 (no control) to 100 (complete control)
Method in brief: (§1)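 Pre-emergence soil surface spray, day after sowing, into sandy loam pots with fertilizer; compounds at 50 or 75 g a.i./ha in 50% acetone, 0.1% Tween-20. Greenhouse at 30±5 °C, 14/10 h light/dark; visual control rated 0–100 against untreated after 14 days (21 if needed).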

barnyard grass [2] = experiment: Herbicidal activity test against upland field weeds (foliar treatment test); set-up: key to Foliar treatment herbicidal activity, barnyard grass: 0 (no control); 100 (complete control); details: scale 0-100
Method in brief: (§2)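 Greenhouse-grown plants (30±5 °C, 14/10 h light/dark) foliar hand-sprayed with compound in 50% acetone, 0.1% Tween-20 at 50 or 75 g a.i./ha. Control visually scored 0 (none) to 100 (complete) versus untreated after 14 days, or 21 days if needed.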

black nightshade [3] = experiment: as above; set-up: key to Foliar treatment herbicidal activity, black nightshade: 0 (no control); 100 (complete control); details: scale 0-100
Method in brief: as §2

sorghum [4] = experiment: Herbicidal activity test against upland field weeds (soil treatment test); set-up: key to Soil treatment herbicidal activity, Sorghum: 0 (no control); 100 (complete control); details: scale 0 (no control) to 100 (complete control); for Soil treatment herbicidal activity, Sorghum: 50 g ai/ha
Method in brief: as §1

crabgrass [5] = experiment: Herbicidal activity test against upland field weeds (foliar treatment test); set-up: key to Foliar treatment herbicidal activity, Crabgrass: 0 (no control); 100 (complete control); details: scale 0-100; for Foliar treatment herbicidal activity, Crabgrass / pest or weed control at 50 g/ha: 50 g ai/ha
Method in brief: as §2

cocklebur [6] = experiment: as above; set-up: key to Foliar treatment herbicidal activity, Cocklebur: 0 (no control); 100 (complete control); details: scale 0-100; for Foliar treatment herbicidal activity, Cocklebur / pest or weed control at 50 g/ha: 50 g ai/ha
Method in brief: as §2

quack grass [7] = experiment: Herbicidal activity test against upland field weeds (soil treatment test); set-up: key to Soil treatment herbicidal activity, quack grass: 0 (no control); 100 (complete control); details: scale 0 (no control) to 100 (complete control); for Soil treatment herbicidal activity, quack grass: 50 g ai/ha
Method in brief: as §1

cocklebur [8] = experiment: as above; set-up: key to Soil treatment herbicidal activity, Cocklebur: 0 (no control); 100 (complete control); details: scale 0 (no control) to 100 (complete control)
Method in brief: as §1

bindweed [9] = experiment: as above; set-up: key to Soil treatment herbicidal activity, Bindweed: 0 (no control); 100 (complete control); details: scale 0 (no control) to 100 (complete control); for Soil treatment herbicidal activity, Bindweed: 50 g ai/ha
Method in brief: as §1

sorghum [10] = experiment: Herbicidal activity test against upland field weeds (foliar treatment test); set-up: key to Foliar treatment herbicidal activity, Sorghum: 0 (no control); 100 (complete control); details: scale 0-100
Method in brief: as §2

velvetleaf [11] = experiment: Herbicidal activity test against upland field weeds (soil treatment test); set-up: key to Soil treatment herbicidal activity, velvet leaf: 0 (no control); 100 (complete control); details: scale 0 (no control) to 100 (complete control)
Method in brief: as §1

fall panicum [12] = experiment: Herbicidal activity test against upland field weeds (foliar treatment test); set-up: key to Foliar treatment herbicidal activity, Fall panicum: 0 (no control); 100 (complete control); details: scale 0-100; for Foliar treatment herbicidal activity, Fall panicum / pest or weed control at 50 g/ha: 50 g ai/ha
Method in brief: as §2

bindweed [13] = experiment: as above; set-up: key to Foliar treatment herbicidal activity, Bindweed: 0 (no control); 100 (complete control); details: scale 0-100
Method in brief: as §2

black nightshade [14] = experiment: Herbicidal activity test against upland field weeds (soil treatment test); set-up: key to Soil treatment herbicidal activity, black nightshade: 0 (no control); 100 (complete control); details: scale 0 (no control) to 100 (complete control); for pest or weed control at 50 g/ha: Solanum nigrum
Method in brief: as §1

fall panicum [15] = experiment: as above; set-up: key to Soil treatment herbicidal activity, Fall panicum: 0 (no control); 100 (complete control); details: scale 0 (no control) to 100 (complete control)
Method in brief: as §1

quack grass [16] = experiment: Herbicidal activity test against upland field weeds (foliar treatment test); set-up: key to Foliar treatment herbicidal activity, quack grass: 0 (no control); 100 (complete control); details: scale 0-100
Method in brief: as §2

crabgrass [17] = experiment: Herbicidal activity test against upland field weeds (soil treatment test); set-up: key to Soil treatment herbicidal activity, Crabgrass: 0 (no control); 100 (complete control); details: scale 0 (no control) to 100 (complete control)
Method in brief: as §1

indian jointvetch [18] = experiment: as above; set-up: key to Soil treatment herbicidal activity, Indian jointvetch: 0 (no control); 100 (complete control); details: scale 0 (no control) to 100 (complete control)
Method in brief: as §1

velvetleaf [19] = experiment: Herbicidal activity test against upland field weeds (foliar treatment test)
Method in brief: as §2

indian jointvetch [20] = experiment: as above; set-up: key to Foliar treatment herbicidal activity, Indian jointvetch: 0 (no control); 100 (complete control); details: scale 0-100; for Foliar treatment herbicidal activity, Indian jointvetch / pest or weed control at 50 g/ha: 50 g ai/ha
Method in brief: as §2

[21] = Abutilon theophrasti, 50 g ai/ha, scale 0-100, read-out: Foliar treatment herbicidal activity, velvet leaf
[22] = Xanthium strumarium, 75 g ai/ha
[23] = Panicum dichotomiflorum, 75 g ai/ha

SMILES	Soil treatment herbicidal activity, barnyard grass (barnyard grass [1]; 50 g ai/ha)	Foliar treatment herbicidal activity, barnyard grass (barnyard grass [2]; 50 g ai/ha)	Soil treatment herbicidal activity, Sorghum (sorghum [4])	Foliar treatment herbicidal activity, Crabgrass (crabgrass [5])	Foliar treatment herbicidal activity, Cocklebur (cocklebur [6])	Soil treatment herbicidal activity, quack grass (quack grass [7])	Soil treatment herbicidal activity, Cocklebur (cocklebur [8]; 50 g ai/ha)	Soil treatment herbicidal activity, Bindweed (bindweed [9])	Foliar treatment herbicidal activity, Sorghum (sorghum [10]; 50 g ai/ha)	Foliar treatment herbicidal activity, Fall panicum (fall panicum [12])	Foliar treatment herbicidal activity, Bindweed (bindweed [13]; 50 g ai/ha)	pest or weed control at 50 g/ha (black nightshade [14]; 50 g ai/ha) [%]	Soil treatment herbicidal activity, Fall panicum (fall panicum [15]; 50 g ai/ha)	Foliar treatment herbicidal activity, quack grass (quack grass [16]; 50 g ai/ha)	Soil treatment herbicidal activity, Crabgrass (crabgrass [17]; 50 g ai/ha)	Soil treatment herbicidal activity, Indian jointvetch (indian jointvetch [18]; 50 g ai/ha)	pest or weed control at 50 g/ha (velvetleaf [19]; [21]) [%]	Foliar treatment herbicidal activity, Indian jointvetch (indian jointvetch [20])	Foliar treatment herbicidal activity, black nightshade (black nightshade [3]; 50 g ai/ha)	Soil treatment herbicidal activity, velvet leaf (velvetleaf [11]; 50 g ai/ha)	further results
CCc1cc(C(=O)Nc2nnnn2C)c(OCc2nnnn2C)nc1C(F)(F)F [Compound No. 1-19, 5-ethyl-N-(1-methyl-1H-tetrazol-5-yl)-2-((1-methyl-1H-tetrazol-5-yl)methoxy)-6-(trifluoromethyl)nicotinamide]	0	0	0	0	0	0	0	0	0	0	0	98	0	0	0	0	20	0			pest or weed control at 50 g/ha (black nightshade [3]; Solanum nigrum, 50 g ai/ha): 90%; pest or weed control at 50 g/ha (velvetleaf [11]; Abutilon theophrasti, 50 g ai/ha, read-out: Soil treatment herbicidal activity, velvet leaf): 20%
CCON(Cc1nnn(C)n1)c1nc(C(F)(F)F)ccc1C(=O)Nc1nnnn1C [Compound No. 2-31, 2-(ethoxy((2-methyl-2H-tetrazol-5-yl)methyl)amino)-N-(1-methyl-1H-tetrazol-5-yl)-6-(trifluoromethyl)nicotinamide]	100		0			0		0	0		0			0			70		100	100	pest or weed control at 50 g/ha (barnyard grass [2]; Echinochloa crus-galli, 50 g ai/ha): 90%; pest or weed control at 50 g/ha (crabgrass [5]; Digitaria sanguinalis): 60%; pest or weed control at 50 g/ha (cocklebur [6]; Xanthium strumarium): 70%; pest or weed control at 50 g/ha (cocklebur [8]; Xanthium strumarium, 50 g ai/ha): 30%; pest or weed control at 50 g/ha (fall panicum [12]; Panicum dichotomiflorum): 40%; Soil treatment herbicidal activity, black nightshade (black nightshade [14]; 50 g ai/ha): 100; pest or weed control at 50 g/ha (fall panicum [15]; Panicum dichotomiflorum, 50 g ai/ha): 95%; pest or weed control at 50 g/ha (crabgrass [17]; Digitaria sanguinalis, 50 g ai/ha): 98%; pest or weed control at 50 g/ha (indian jointvetch [18]; 50 g ai/ha): 98%; pest or weed control at 50 g/ha (indian jointvetch [20]): 40%
CN(CCc1nnn(C)n1)c1nc(C(F)(F)F)ccc1C(=O)Nc1nnnn1C [Compound No. 2-36, 2-(methyl(2-(2-methyl-2H-tetrazol-5-yl)ethyl)amino)-N-(1-methyl-1H-tetrazol-5-yl)-6-(trifluoromethyl)nicotinamide]																					Soil treatment herbicidal activity, barnyard grass (barnyard grass [1]; 75 g ai/ha): 100; pest or weed control at 75 g/ha (barnyard grass [2]; Echinochloa crus-galli, 75 g ai/ha): 90%; pest or weed control at 75 g/ha (black nightshade [3]; Solanum nigrum, 75 g ai/ha): 95%; plant injury at 75 g/ha (sorghum [4]; Sorghum, 75 g ai/ha): 20%; pest or weed control at 75 g/ha (crabgrass [5]; Digitaria sanguinalis, 75 g ai/ha): 60%; pest or weed control at 75 g/ha (cocklebur [6]; [22]): 70%; pest or weed control at 75 g/ha (quack grass [7]; 75 g ai/ha): 10%; pest or weed control at 75 g/ha (cocklebur [8]; [22]): 90%; pest or weed control at 75 g/ha (bindweed [9]; 75 g ai/ha): 70%; plant injury at 75 g/ha (sorghum [10]; Sorghum, 75 g ai/ha): 20%; Soil treatment herbicidal activity, velvet leaf (velvetleaf [11]; 75 g ai/ha): 100; pest or weed control at 75 g/ha (fall panicum [12]; [23]): 50%; pest or weed control at 75 g/ha (bindweed [13]; 75 g ai/ha): 70%; Soil treatment herbicidal activity, black nightshade (black nightshade [14]; 75 g ai/ha): 100; pest or weed control at 75 g/ha (fall panicum [15]; [23]): 98%; Foliar treatment herbicidal activity, quack grass (quack grass [16]; 75 g ai/ha): 0; Soil treatment herbicidal activity, Crabgrass (crabgrass [17]; 75 g ai/ha): 100; Soil treatment herbicidal activity, Indian jointvetch (indian jointvetch [18]; 75 g ai/ha): 100; pest or weed control at 75 g/ha (velvetleaf [19]; Abutilon theophrasti, 75 g ai/ha, scale 0-100, read-out: Foliar treatment herbicidal activity, velvet leaf): 50%; pest or weed control at 75 g/ha (indian jointvetch [20]; 75 g ai/ha): 60%
Cn1nnc(CSCc2nc(C(F)F)ccc2C(=O)N(C(=O)c2ccccc2)c2nnnn2C)n1 [Compound No. 2-112, N-benzoyl-6-(difluoromethyl)-N-(1-methyl-1H-tetrazol-5-yl)-2-((((2-methyl-2H-tetrazol-5-yl)methyl)thio)methyl)nicotinamide]	0	100	0			0	0	0				90	0	0	0	100	90		100	100	pest or weed control at 50 g/ha (crabgrass [5]; Digitaria sanguinalis): 90%; pest or weed control at 50 g/ha (cocklebur [6]; Xanthium strumarium): 98%; plant injury at 50 g/ha (sorghum [10]; Sorghum, 50 g ai/ha): 50%; pest or weed control at 50 g/ha (fall panicum [12]; Panicum dichotomiflorum): 70%; pest or weed control at 50 g/ha (bindweed [13]; 50 g ai/ha): 98%; pest or weed control at 50 g/ha (indian jointvetch [20]): 95%
Cn1nnc(C[S+]([O-])Cc2nc(C(F)F)ccc2C(=O)Nc2nnnn2C)n1 (stereo not shown) [Compound No. 2-111, 6-(difluoromethyl)-N-(1-methyl-1H-tetrazol-1-yl)-2-((((2-methyl-2H-tetrazol-5-yl)methyl)sulfinyl)methyl)nicotinamide]	0	100	0	98	100	0	0	0	70	95	98		0	0	0	0		95	100	0	Soil treatment herbicidal activity, black nightshade (black nightshade [14]; 50 g ai/ha): 90; Foliar treatment herbicidal activity, velvet leaf (velvetleaf [19]; 50 g ai/ha, scale 0-100): 80

Source: US12495798B2, “Nicotinamide compound and herbicidal composition comprising compound” (KOREA RESEARCH INSTITUTE OF CHEMICAL TECHNOLOGY, priority 2019, dated 2025)
